Calls of active or inactive are those of the source. The rule behind the calls is not given here.
Biological target: Ras-related C3 botulinum toxin substrate 1 (Homo sapiens) (UniProt P63000)
Experiment: activated mutant Rac1 GTP binding inhibitors, SAR follow-up, biochemical, additional analogs, multiplex bead flow cytometry (AID 2039)
Conditions: Multiplex flow cytometry bead GTP-binding assay; for Ki: measured here: Ki for Rac1 nucleotide binding

| SMILES | EC50 | Ki |
| --- | --- | --- |
| O=Nc1c(-c2c(O)[nH]c3ccc(Br)cc23)[nH]c2ccccc12 | inactive | 2980 nM |
| CC(C(=O)O)c1cccc(Oc2ccccc2)c1 (configuration not stated) | inactive |  |
| COc1ccc2cc(CC(=O)O)ccc2c1 | inactive |  |
| O=C1C(c2c(O)[nH]c3c(Br)cccc23)=Nc2ccccc21 | inactive | 2510 nM |
| O=C1C(c2c(O)[nH]c3c(F)cccc23)=Nc2ccccc21 | inactive |  |
| O=C1Nc2c(Br)cccc2/C1=C1/Cc2ccccc2C1=O | inactive |  |
| O=Nc1c(-c2c(O)[nH]c3c(Br)cccc23)[nH]c2ccccc12 | inactive |  |
| O=C(C#Cc1ccccc1)c1ccccc1 | inactive |  |
| COc1ccc(-c2c(C#N)c(N)n(S(C)(=O)=O)c2C(=O)c2ccccc2)cc1Br | inactive |  |
| CC1=C(CC(=O)O)c2cc(F)ccc2/C1=C/c1ccc(S(C)=O)cc1 (configuration not stated) | inactive | 4240 nM |
| COc1ccc(S(=O)(=O)n2c(N)c(C#N)c(-c3cncc(Br)c3)c2C(=O)c2ccccc2)cc1 | inactive | 1060 nM |
| O=C1N=c2ccccc2=C1c1[nH]c(=S)[nH]c1O | inactive | 640 nM |
| O=Nc1c(-c2c(O)[nH]c3c(Cl)cccc23)[nH]c2ccccc12 | inactive |  |
| COc1ccc(S(=O)(=O)n2c(N)c(C#N)c(-c3ccccc3)c2C(=O)c2ccc(Br)cc2)cc1 | inactive |  |
| O=C1N=c2ccccc2=C1c1[nH]c(=O)[nH]c1O | inactive | 1060 nM |
| CSc1ccc(/C=C2/C(C)=C(CC(=O)O)c3cc(F)ccc32)cc1 | inactive | 4850 nM |
| CCCCS(=O)(=O)n1c(N)c(C#N)c(-c2cc(OC)c(OC)c(OC)c2)c1C(=O)c1ccccc1 | inactive |  |
| O=C1C(c2c(O)[nH]c3ccc(Br)cc23)=Nc2ccccc21 | inactive | 1110 nM |
| O=C1Nc2ccccc2/C1=C1/Cc2ccccc2C1=O | inactive |  |
| O=Nc1c(-c2c(O)[nH]c3c(F)cccc23)[nH]c2ccccc12 | inactive | 2870 nM |
| O=Nc1c(-c2c(O)[nH]c3ccccc23)[nH]c2ccccc12 | inactive |  |
| O=C(C#Cc1ccccc1)c1ccccc1[N+](=O)[O-] | inactive |  |
| O=C1C(c2c(O)[nH]c3ccccc23)=Nc2ccccc21 | inactive |  |
| O=C(C#Cc1ccccc1)c1ccc([N+](=O)[O-])cc1 | 8370 nM | 760 nM |
| N#Cc1c(-c2ccc(Cl)cc2)c(C(=O)c2ccccc2)n(S(=O)(=O)c2ccc([N+](=O)[O-])cc2)c1N | inactive | 540 nM |
| O=C1Nc2cccc(Br)c2/C1=C1/Cc2ccccc2C1=O | inactive |  |
| COc1cc(-c2c(C#N)c(N)n(S(=O)(=O)c3c(C(C)C)cc(C(C)C)cc3C(C)C)c2C(=O)c2ccccc2)cc(OC)c1OC | inactive | 6050 nM |
| CC(=O)Oc1ccccc1C(=O)O | inactive |  |
| O=C1C(c2c(O)[nH]c3c(Cl)cccc23)=Nc2ccccc21 | inactive |  |
| COc1ccc(S(=O)(=O)n2c(N)c(C#N)c(-c3cc(Br)c(OC)c(OC)c3)c2C(=O)c2ccccc2)cc1 | inactive |  |
